Here are results for 1 compound from patent US20260199510A1, “AN ANTIBODY-DRUG CONJUGATE HAVING TWO OR MORE FUNCTIONAL SMALL MOLECULE COMPOUNDS FOR ENHANCED TREATMENT OF REFRACTORY DISEASES” (priority 2023, published 2026).

Common to all, as to format: cell-based
One experiment deals with C4-2B cells. Kind of experiment: MTT assay of B7H3-ADCs against C4-2B tumor cells. The conditions noted are these: 6000 cells, 96 h incubation.
The next experiment relates to PC3-4H7 cells. Nature of the experiment: MTT assay of B7H3-ADCs against PC3-4H7 tumor cells. Conditions: 6000 cells, 96 h incubation. An excerpt:
Parent cell line PC-3 from Nanjing Cobioer Biosciences Co., was introduced with plasmid coexpress both human PSMA and RFP-Neomycin fusion protein and plasmid coexpress human Steap1 and GFP-Blasticidin fusion protein. The high expression cells were selected by neomycin and Blasticidin, and the selected clone 4H7 having high expression of both PSMA and Steapl was verified by FACs and chosen for further use in vitro and in vivo study.
The cell lines used in the cytotoxicity assays were: C4-2B Cells which was obtained from ATCC through license agreement with MD Anderson Cancer Center, Houston, TX, USA. 22RV1, U87, NCI-N87, MKN-7, JIMT-1, SU86.86, SW1990, OVCAR-3, Calu-3, A431, AsPC-1, HCC827 and H1975 cells were purchased from ATCC, Nanjing Cobioer and The Cell Bank of Shanghai Institute of Biochemistry and Cell Biology, and the others. C4-2B and PC-3-4H7 are both Steap1 and PSMA antigen high express cells, but medium expressed of both B7H3 and DLL3 antigens. 22RV1 is low express cells for Steapl, PSMA, B7H3 and DLL3 antigens. U87 is glioblastoma (GBM) cells, NCI-N87 and MKN-7 cell line are stable models of the gastric epithelium. […] After it was shaken for 15 min, the absorbance was measured at 490 nm and 570 nm with a reference filter of 620 nm. The inhibition % was calculated according to the following equation: inhibition % =[1-(assay-blank)/(control-blank)]x 100.
(Tetrazolium assays rely on reduction of a dye to a coloured formazan, in cell work by metabolically active cells.)

A further experiment concerns 22RV1 cells. Nature of the experiment: MTT assay of B7H3-ADCs against 22RV1 tumor cells. Conditions: Homo sapiens, 6000 cells, 96 h incubation.
A further experiment has as its system NCI-N87 cells. Nature of the experiment: MTT assay of BsHer2-ADCs against NCI-N87 cells. The conditions noted are these: Homo sapiens, BsHer2 (trastuzumab/pertuzumab)-ADCs, 5000 cells, 96 h incubation.
The next experiment deals with MKN-7 cells. Kind of experiment: MTT assay of BsHer2-ADCs against MKN-7 cells. The conditions noted are these: Homo sapiens, BsHer2 (trastuzumab/pertuzumab)-ADCs, 5000 cells, 96 h incubation.
In the next experiment the test system is SW1990 cells. Kind of experiment: MTT assay of BsHer2-ADCs against SW1990 cells. The conditions noted are these: Homo sapiens, BsHer2 (trastuzumab/pertuzumab)-ADCs, 5000 cells, 96 h incubation.
The test system of another experiment is SU86.86 cells. Nature of the experiment: MTT assay of BsHer2-ADCs against SU86.86 cells. The conditions noted are these: Homo sapiens, SU.86.86, BsHer2 (trastuzumab/pertuzumab)-ADCs, 5000 cells, 96 h incubation.

`CC(=O)O[C@H]1C(=O)[C@@]2(C)[C@H]([C@H](OC(=O)c3ccccc3)[C@]3(O)C[C@H](OC(=O)[C@H](O)[C@@H](NC(=O)c4ccccc4)c4ccccc4)C(C)=C1C3(C)C)[C@]1(OC(C)=O)CO[C@@H]1C[C@@H]2O` [Paclitaxel]: the IC50 with C4-2B cells is 1.59 nM; in the experiment with PC3-4H7 cells, 2.03 nM; in the experiment on 22RV1 cells, 1.85 nM; in the experiment with NCI-N87 cells, 0.76 nM; in the experiment on MKN-7 cells, 10.2 nM; in the experiment on SW1990 cells, 0.042 nM. This compound gave an IC50 with SU86.86 cells of 2.98 nM.

As usually defined, the IC50 is the point on the concentration scale where inhibition reaches its midpoint. Low readings indicate greater potency, high ones weaker potency.
